Values quoted from earlier work in patent publication US20020072508A1, “Anti-depressant, stress suppressor and mood improver” (LIPOGEN LTD., priority 2000, published 2002).

Test system: withdrawal symptoms associated with addiction (cigarettes, alcohol, narcotics)

Substance: phosphatidic acid
- withdrawal symptoms associated with addiction: alleviate withdrawal symptoms
